Source: US10369131B2, “Ultrapure tetrahydrocannabinol-11-oic acids” (Corbus Pharmaceuticals, Inc., priority 2013, dated 2019)
“Also recorded” adds a separate entry of the source.

Key:
female CD-1 mice = test: Rectal temperature (mouse hypothermia assay); conditions: oral 0.05-56 mg/kg, 90 min after administration
Description: Compounds were administered at a volume of […] via oral gavage.
Female CD-1 mice (20-25 g), obtained from Charles River (Raleigh, N.C.), were used for assessment in hot plate nociception, rectal temperature, and ring immobility assays. Separate mice were used for testing each dose of each compound in this battery of procedures. The mice had free access to food and water when in their home cages. All animals were kept in a temperature-controlled (20-22° C.) environment with a 12-hour light-dark cycle (lights on at 7 a.m.).
Each mouse was tested in a battery of three tests, in which cannabinoid CB1 agonists produce in vivo effects in mice (Martin et al., 1991): antinociception (hot plate assay), decreased rectal temperature and ring immobility. Prior to administration of the test compound, rectal temperature and baseline latency in the hot plate test were measured in the mice. The latter procedure involved placing the mouse on a heated surface (mouse cold/hot plate analgesia apparatus; Stoelting, Wood Dale, Ill.) at a setting of 55° C. Time until the mouse lifts or licks a paw was measured, whereupon the mouse was removed from the apparatus. […] Subsequently, the mice were placed on a 5.5 cm ring attached at a height of 16 cm to a ring stand, and the amount of time the animals remained motionless during a 5 min period was recorded. In addition, the number of times the mouse fell or jumped off the ring was recorded. […]
Rectal temperature values were expressed as the difference between control temperature (before injection) and temperature following drug administration (Δ° C.). Antinociception was expressed as the percent maximum possible effect (MPE) using a 30-s maximum test latency as follows: [(test−control)/(30−control)]×100. During assessment for catalepsy, the total amount of time (in seconds) that the mouse remained motionless on the ring apparatus (except for breathing and whisker movement) was measured and was used as an indication of catalepsy-like behavior. […]

[1] = system: C57Bl mice, bleomycin induced skin fibrosis; test: Bleomycin induced skin fibrosis mouse model of scleroderma; assay type: in vivo; conditions: for inhibition of skin fibrosis: oral gavage 2.5, 5.0 and 10 mg/kg daily, bleomycin s.c. 14 days, sacrifice day 21
Description: Groups of 8 mice (6-12 week-old C57Bl) received daily s.c. injections of bleomycin (20 ug/mouse) or vehicle for 14 days, followed by one weeks of recovery. In parallel, starting day 1, ultrapure AJA suspended in 2% methylcellulose (MC) or vehicle was administered by oral gavage at 0, 2.5, 5.0 and 10 mg/kg. On day 21, mice were sacrificed. Their skin was harvested and processed for routine histology (H&E, trichrome and picrosirius red stains), immunohistology (paraffin-embedded or frozen samples), in situ hybridization, collagen (SIRCOL) assays, and RNA isolation for real-time qPCR or microarray hybridization. Skin sections were carefully characterized and quantified for dermal inflammation, dermal thickening, collagen accumulation (Trichrome), and collagen cross-linking (Sirius red) in lesional skin.

[2] = system: CD-1 mice, arachidonic acid induced paw edema; test: Arachidonic acid induced paw edema model; assay type: in vivo, mouse; conditions: oral 5, 50 and 500 ug/kg, 90 min before arachidonic acid, paw volume 45 min after injection
Description: CD-1 Mice (Female) were randomly allocated to experimental groups and allowed to acclimatise for one week. Prior to test compound administration, baseline right hind paw volume was measured under gas (isoflurane) anaesthesia using a water displacement device (plethysmometer, Stoelting). On Day 0, ultrapure AJA suspended in 2% MC or vehicle was administered at 0, 5, 50 and 500 ug/kg by oral gavage. Ninety minutes after treatment administration, the animals were given 10 microliters of a 100 mg/ml arachidonic acid solution in 5% ethanol by subcutaneous injection into the plantar aspect of the right hind paw. A control group of animals (Group 1) was administered with an equivalent volume of a 5% ethanol solution. The left hind paws were not injected. Intra-plantar injections were performed under gas anaesthesia. 45 minutes after the intra-plantar injections right hind paw volume was measured under gas anaesthesia using a plethysmometer.

hCB2 receptor = hCB2 receptor (Homo sapiens, UniProt P34972)
Chain of hCB2 receptor (P34972 whole entry): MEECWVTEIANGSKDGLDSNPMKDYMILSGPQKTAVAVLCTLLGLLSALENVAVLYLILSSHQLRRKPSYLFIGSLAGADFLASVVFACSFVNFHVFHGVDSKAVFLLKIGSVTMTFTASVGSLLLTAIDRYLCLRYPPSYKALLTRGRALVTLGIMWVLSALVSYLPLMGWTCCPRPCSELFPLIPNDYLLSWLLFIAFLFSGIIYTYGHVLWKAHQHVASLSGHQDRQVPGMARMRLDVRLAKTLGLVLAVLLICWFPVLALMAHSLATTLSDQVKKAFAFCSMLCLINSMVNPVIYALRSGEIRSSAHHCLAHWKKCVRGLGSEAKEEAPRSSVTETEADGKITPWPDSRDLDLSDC
Description: (§1) When the CB1 or CB2 receptor is activated by an agonist, the affinity of the G protein alpha subunit increases with respect to GTP vs. GDP. As a consequence, GDP is displaced from the G protein and GTP or GTPγS binds. If a radioactive label, such as [^35S], is attached to the GTPγS molecule, then the formation of the G protein/[^35S]GTPγS complex can be directly measured using liquid scintillation spectrophotometry.
(§2) The CB1 and CB2 receptor assays involve membrane preparations purchased from Perkin Elmer (Waltham, Mass.) isolated from a HEK-293 expression system. G-protein coupled signal transduction (GTP-γ-[35S]) assays of test compounds were conducted in an incubation mixture consisting of a test compound (250 nM-1 mM), GDP (20 μM), GTP-γ-[35S] (100 pM), and the hCB1 and hCB2 membrane preparations (0.4 pM) in a total volume of 0.4 mL of assay buffer (50 mM TRIS-HCl, pH 7.4, 1 mM EDTA, 100 mM NaCl, 5 mM MgCl2, 0.5% (w/v) BSA). Nonspecific binding was determined in the presence of 100 μM unlabeled GTP-γ-S, and basal binding was determined in the absence of drug. Duplicate samples were incubated for 1 h at 30° C., and the bound complex was filtered from the reaction mixture as described previously and counted in a liquid scintillation counter. Specific binding was calculated by subtracting nonspecific binding from total binding and dividing by the total basal binding minus nonspecific binding. Data were plotted and analyzed with GraphPad Prism (GraphPad Software, Inc., San Diego, Calif.).

CB1 receptor [3] = molecular target: T1, CB1 receptor (Homo sapiens, UniProt P21554); test: biochemical
T1 sequence (P21554 whole entry): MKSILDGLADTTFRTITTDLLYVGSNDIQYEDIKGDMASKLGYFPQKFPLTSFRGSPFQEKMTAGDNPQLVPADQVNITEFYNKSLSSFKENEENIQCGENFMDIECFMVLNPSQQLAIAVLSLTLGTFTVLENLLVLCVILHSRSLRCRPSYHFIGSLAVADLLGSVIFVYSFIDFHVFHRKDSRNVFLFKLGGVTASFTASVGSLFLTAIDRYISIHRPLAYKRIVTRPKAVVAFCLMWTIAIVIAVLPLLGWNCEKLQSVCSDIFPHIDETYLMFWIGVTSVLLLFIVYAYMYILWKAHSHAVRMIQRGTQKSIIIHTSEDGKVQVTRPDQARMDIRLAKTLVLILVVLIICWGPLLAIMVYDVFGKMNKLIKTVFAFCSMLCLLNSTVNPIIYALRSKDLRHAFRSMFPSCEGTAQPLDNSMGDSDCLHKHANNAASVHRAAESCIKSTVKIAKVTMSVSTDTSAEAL
Description: as §1, §2

CB1 receptor [4] = molecular target: T1, CB1 receptor; test: CB receptor radioligand binding assay, human CB1; parameters: expressed in transfected cells; host or cells: HEK-293T
Description: Membrane preparation—HEK-293T cells were cultured according to ATCC (Manassas, Va.) guidelines and transfected with human CB1 cDNA (Genbank X54937) or CB2 cDNA (Genbank X74328), operably linked to the SV40 promoter, using Polyfect (Qiagen, Valencia, Calif.) or Fugene (Roche, Nutley, N.J.) according to manufacturer's instructions. 48 h after transfection, cells were harvested in ice cold membrane buffer (20 mM HEPES, 6 mM MgCl2, 1 mM EDTA, pH 7.2) using a cell scraper. Cells were transferred to a nitrogen cavitation chamber and a pressure of […] was applied for 30 min. The pressure was released and the cell debris was collected and centrifuged at 1000 g at 4° C. for 10 min. The supernatant was collected and the spin was repeated until the supernatant was free of precipitate. […] The membrane concentration was determined using a BioRad (Hercules, Calif.) protein assay dye reagent according to manufacturer's instructions. […]
Membranes were incubated for 2 hr at room temperature, then filtered onto a presoaked (with 0.1% polyethylenimine for 1 to 2 hr) 96 well GF/B filterplate (Packard Bioscience, Shelton, Conn.) and washed with […] ice cold wash buffer (25 mM HEPES, 1 mM CaCl2, 5 mM MgCl2, 0.25M NaCl) using a Filtermate 196 Harvester (Packard Instruments, Downers Grove, Ill.). […] Plates were counted on a Topcount NXT (Packard, Shelton, Conn.). […]

## CCCCCCC(C)(C)c1cc(O)c2c(c1)OC(C)(C)[C@@H]1CC=C(C(=O)O)C[C@@H]21 [JBT-101, (6aR,10aR)-3-(1′,1′-dimethylheptyl)-Δ8-tetrahydro-cannabinol-9-carboxylic acid]
Female CD-1 mice
  change in rectal temperature (hypothermia): None of the doses tested produced significant; also recorded: inactive
[1]; all oral doses, including 1 mg/kg (data not shown)
  inhibition of skin thickening: equally effective
[1]
  inhibition of skin fibrosis: effective at inhibiting skin fibrosis
[1]; listed as ultrapure AJA
  inhibition of skin fibrosis: effective at all doses tested
[2]
  inhibition of paw volume / inflammation: effective at doses well below the doses in which CB1 activity is observed
[2]; listed as ultrapure AJA
  inhibition of paw volume / inflammation: effective at all doses tested
hCB2 receptor; FIG. 13
  potency in the GTP-gamma-S assay better in the CB2 assay than in the CB1 assay: ~10 ×
hCB2 receptor; GTP-γ-35S EC50 CB1 vs CB2
  difference in potency for activation of CB2 versus CB1 receptors: 9 fold
CB1 receptor [3]; hCB1 EC50 Mean (±SEM), GTP-γ-35S turnover, mean of 4 repetitions
  EC50: 9.21 ± 2.04 µM
CB1 receptor [3]; hCB1 EC50 Rep 1, GTP-γ-35S turnover, replicate 1
  EC50: 13.7 µM
CB1 receptor [3]; hCB1 EC50 Rep 2, GTP-γ-35S turnover, replicate 2
  EC50: 5.83 µM
CB1 receptor [3]; hCB1 EC50 Rep 3, GTP-γ-35S turnover, replicate 3
  EC50: 11.6 µM
CB1 receptor [3]; hCB1 EC50 Rep 4, GTP-γ-35S turnover, replicate 4
  EC50: 5.66 µM
CB1 receptor [4]
  Ki: 0.628 ± 0.006 µM
